Source: ChEMBL document CHEMBL1201862, “PubChem BioAssay data set” (2004)
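Growth conditions: 96-well plates. Treatment: test compound, 48 hours, 5 concentrations. Analysis: linear interpolation between bracketing concentrations; unreached endpoints set to highest concentration. GI50 marks 50% less growth.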 The source made the active and inactive calls. Rule as the data show it: active = GI50 up to about 1.1 µM and inactive = higher.

Columns and labels:
Assay in all cases: NCI-60 cell line screen, 48 h
786-0 = system: 786-0
A498 = system: A498
A549 = system: A549
ACHN = system: ACHN
CCRF-CEM = system: CCRF-CEM
COLO 205 = system: COLO 205
DLD-1 = system: DLD-1
DMS-114 = system: DMS-114
DMS-273 = system: DMS-273
EKVX = system: EKVX
HCC 2998 = system: HCC 2998
HCT-116 = system: HCT-116
HL-60 = system: HL-60
HOP-62 = system: HOP-62
HOP-92 = system: HOP-92
HT-29 = system: HT-29
IGROV-1 = system: IGROV-1
K562 = system: K562
KM-20L2 = system: KM-20L2
KM12 = system: KM12
LOX IMVI = system: LOX IMVI
LXFL 529 = system: LXFL 529
M14 = system: M14
M19-MEL = system: M19-MEL
MOLT-4 = system: MOLT-4
Malme-3M = system: Malme-3M
NCI-H23 = system: NCI-H23
NCI-H460 = system: NCI-H460
NCI-H522 = system: NCI-H522
OVCAR-3 = system: OVCAR-3
OVCAR-5 = system: OVCAR-5
OVCAR-8 = system: OVCAR-8
RPMI-8226 = system: RPMI-8226
RXF 393 = system: RXF 393
SF-539 = system: SF-539
SK-MEL-28 = system: SK-MEL-28
SK-MEL-2 = system: SK-MEL-2
SK-OV-3 = system: SK-OV-3
SNB-75 = system: SNB-75
SNB-78 = system: SNB-78
SW-620 = system: SW-620
TK-10 = system: TK-10
U-251 = system: U-251
UACC-257 = system: UACC-257
UACC-62 = system: UACC-62
UO-31 = system: UO-31
XF498 = system: XF498
CAKI-1 = system: CAKI-1
HCT-15 = system: HCT-15
HOP-18 = system: HOP-18
MCF7 = system: MCF7
NCI-H226 = system: NCI-H226
NCI/ADR-RES = system: NCI/ADR-RES
OVCAR-4 = system: OVCAR-4
SF-268 = system: SF-268
SF-295 = system: SF-295
SK-MEL-5 = system: SK-MEL-5
SN12C = system: SN12C
SNB-19 = system: SNB-19
SR = system: SR

In the case of NC(=O)C12CC3CC(CC(F)(C3)C1)C2, the GI50 (786-0) is reported as > 100 µM (inactive), the GI50 (A498) is reported as > 100 µM (inactive) and the GI50 (A549) is reported as > 100 µM (inactive). For the same compound, the GI50 (ACHN) was > 100 µM (inactive), the GI50 (CCRF-CEM) was > 100 µM (inactive) and the GI50 (COLO 205) was > 100 µM (inactive). For the same compound, the GI50 (DLD-1) was > 100 µM (inactive), the GI50 (DMS-114) was > 100 µM (inactive) and the GI50 (DMS-273) was > 100 µM (inactive). For the same compound, the GI50 (EKVX) was > 100 µM (inactive), the GI50 (HCC 2998) was > 100 µM (inactive) and the GI50 (HCT-116) was > 100 µM (inactive). For the same compound, the GI50 (HL-60) was > 100 µM (inactive), the GI50 (HOP-62) was > 100 µM (inactive) and the GI50 (HOP-92) was > 100 µM (inactive). The GI50 (HT-29) was > 100 µM (inactive), the GI50 (IGROV-1) was > 100 µM (inactive) and the GI50 (K562) was > 100 µM (inactive). The GI50 (KM-20L2) was > 100 µM (inactive), the GI50 (KM12) was > 100 µM (inactive) and the GI50 (LOX IMVI) was > 100 µM (inactive). For the same compound, the GI50 (LXFL 529) was > 100 µM (inactive), the GI50 (M14) was > 100 µM (inactive) and the GI50 (M19-MEL) was > 100 µM (inactive). For the same compound, the GI50 (MOLT-4) was > 100 µM (inactive), the GI50 (Malme-3M) was > 100 µM (inactive) and the GI50 (NCI-H23) was > 100 µM (inactive). The GI50 (NCI-H460) was > 100 µM (inactive), the GI50 (NCI-H522) was > 100 µM (inactive) and the GI50 (OVCAR-3) was > 100 µM (inactive). The GI50 (OVCAR-5) was > 100 µM (inactive), the GI50 (OVCAR-8) was > 100 µM (inactive) and the GI50 (RPMI-8226) was > 100 µM (inactive). For the same compound, the GI50 (RXF 393) was > 100 µM (inactive), the GI50 (SF-539) was > 100 µM (inactive) and the GI50 (SK-MEL-28) was > 100 µM (inactive). The GI50 (SK-MEL-2) was > 100 µM (inactive), the GI50 (SK-OV-3) was > 100 µM (inactive) and the GI50 (SNB-75) was 57.4 µM (inactive). For the same compound, the GI50 (SNB-78) was > 100 µM (inactive), the GI50 (SW-620) was > 100 µM (inactive) and the GI50 (TK-10) was > 100 µM (inactive). The GI50 (U-251) was > 100 µM (inactive), the GI50 (UACC-257) was > 100 µM (inactive) and the GI50 (UACC-62) was > 100 µM (inactive). For the same compound, the GI50 (UO-31) was > 100 µM (inactive) and the GI50 (XF498) was > 100 µM (inactive).

For C=C1C(=O)OC2C=C(C)CC3C=C(CCC=C(C)CCC12)C(=O)O3 (centres undefined), the GI50 (A498) was 73.1 µM (inactive), the GI50 (A549) was 99.3 µM (inactive) and the GI50 (CAKI-1) was 54.7 µM (inactive). For the same compound, the GI50 (CCRF-CEM) was 16.5 µM (inactive), the GI50 (COLO 205) was 53.1 µM (inactive) and the GI50 (DLD-1) was 54.5 µM (inactive). The GI50 (DMS-114) was 65.9 µM (inactive), the GI50 (DMS-273) was 68.1 µM (inactive) and the GI50 (EKVX) was 62.4 µM (inactive). For the same compound, the GI50 (HCC 2998) was 58.7 µM (inactive), the GI50 (HCT-116) was 33.1 µM (inactive) and the GI50 (HCT-15) was 56.6 µM. For the same compound, the GI50 (HL-60) was 15.7 µM (inactive), the GI50 (HOP-18) was 51.3 µM (inactive) and the GI50 (HOP-62) was 114 µM (inactive). The GI50 (HOP-92) was 52.8 µM (inactive), the GI50 (HT-29) was 67 µM (inactive) and the GI50 (IGROV-1) was 48 µM (inactive). For the same compound, the GI50 (K562) was 55.8 µM (inactive), the GI50 (KM-20L2) was 52.7 µM (inactive) and the GI50 (KM12) was 52.7 µM (inactive). The GI50 (LOX IMVI) was 32.5 µM (inactive), the GI50 (M19-MEL) was 58.3 µM (inactive) and the GI50 (MCF7) was 47.5 µM (inactive). For the same compound, the GI50 (MOLT-4) was 54 µM (inactive), the GI50 (Malme-3M) was 46.1 µM (inactive) and the GI50 (NCI-H226) was 72.8 µM (inactive). The GI50 (NCI-H23) was 49.3 µM (inactive), the GI50 (NCI-H460) was 67.5 µM (inactive) and the GI50 (NCI-H522) was 17.3 µM (inactive). For the same compound, the GI50 (NCI/ADR-RES) was 62.8 µM (inactive), the GI50 (OVCAR-3) was 56.8 µM (inactive) and the GI50 (OVCAR-4) was 72.3 µM (inactive). For the same compound, the GI50 (OVCAR-5) was 101 µM (inactive), the GI50 (OVCAR-8) was 72.3 µM (inactive) and the GI50 (RPMI-8226) was 44.9 µM (inactive). For the same compound, the GI50 (RXF 393) was 31.3 µM (inactive), the GI50 (SF-268) was 61.8 µM (inactive) and the GI50 (SF-295) was 79.4 µM (inactive). For the same compound, the GI50 (SF-539) was 84.5 µM (inactive), the GI50 (SK-MEL-28) was 58.1 µM (inactive) and the GI50 (SK-MEL-2) was 53.3 µM (inactive). The GI50 (SK-MEL-5) was 67.9 µM (inactive), the GI50 (SK-OV-3) was 121 µM (inactive) and the GI50 (SN12C) was 69 µM (inactive). For the same compound, the GI50 (SNB-19) was 122 µM (inactive), the GI50 (SNB-75) was 92.5 µM (inactive) and the GI50 (SNB-78) was 66.4 µM (inactive). For the same compound, the GI50 (SW-620) was 31 µM (inactive), the GI50 (U-251) was 65 µM (inactive) and the GI50 (UACC-257) was 43.1 µM (inactive). The GI50 (UACC-62) was 54.2 µM (inactive) and the GI50 (UO-31) was 105 µM (inactive).

O=S1(=O)[C@H](c2ccccc2)c2c(-c3ccccc3)sc(-c3ccccc3)c2[C@@H]1c1ccccc1 was tested, and the GI50 (786-0) was 38.9 µM (inactive), the GI50 (A549) was > 100 µM (inactive) and the GI50 (ACHN) was > 100 µM (inactive). For the same compound, the GI50 (CAKI-1) was > 100 µM (inactive), the GI50 (CCRF-CEM) was > 100 µM (inactive) and the GI50 (COLO 205) was > 100 µM (inactive). For the same compound, the GI50 (DLD-1) was > 100 µM (inactive), the GI50 (DMS-114) was > 100 µM (inactive) and the GI50 (DMS-273) was > 100 µM (inactive). The GI50 (EKVX) was > 100 µM (inactive), the GI50 (HCC 2998) was > 100 µM (inactive) and the GI50 (HCT-15) was > 100 µM. For the same compound, the GI50 (HL-60) was > 100 µM (inactive), the GI50 (HOP-18) was 77.1 µM (inactive) and the GI50 (HOP-62) was > 100 µM (inactive). For the same compound, the GI50 (HOP-92) was 27 µM (inactive), the GI50 (HT-29) was > 100 µM (inactive) and the GI50 (IGROV-1) was > 100 µM (inactive). For the same compound, the GI50 (K562) was > 100 µM (inactive), the GI50 (KM-20L2) was > 100 µM (inactive) and the GI50 (KM12) was > 100 µM (inactive). For the same compound, the GI50 (LOX IMVI) was 58.5 µM (inactive), the GI50 (LXFL 529) was 88.1 µM (inactive) and the GI50 (M14) was > 100 µM (inactive). For the same compound, the GI50 (M19-MEL) was > 100 µM (inactive), the GI50 (MOLT-4) was > 100 µM (inactive) and the GI50 (Malme-3M) was 94.2 µM (inactive). For the same compound, the GI50 (NCI-H23) was > 100 µM (inactive), the GI50 (NCI-H460) was > 100 µM (inactive) and the GI50 (NCI-H522) was 13 µM (inactive). For the same compound, the GI50 (OVCAR-3) was > 100 µM (inactive), the GI50 (OVCAR-4) was 48.1 µM (inactive) and the GI50 (OVCAR-5) was 3.81 µM (inactive). For the same compound, the GI50 (OVCAR-8) was > 100 µM (inactive), the GI50 (RPMI-8226) was > 100 µM (inactive) and the GI50 (RXF 393) was 39.8 µM (inactive). For the same compound, the GI50 (SF-268) was > 100 µM (inactive), the GI50 (SF-295) was > 100 µM (inactive) and the GI50 (SF-539) was > 100 µM (inactive). For the same compound, the GI50 (SK-MEL-28) was > 100 µM (inactive), the GI50 (SK-MEL-2) was > 100 µM (inactive) and the GI50 (SK-MEL-5) was 71.9 µM (inactive). For the same compound, the GI50 (SK-OV-3) was > 100 µM (inactive), the GI50 (SN12C) was > 100 µM (inactive) and the GI50 (SNB-19) was > 100 µM (inactive). For the same compound, the GI50 (SNB-75) was 26.1 µM (inactive), the GI50 (SW-620) was > 100 µM (inactive) and the GI50 (TK-10) was > 100 µM (inactive). For the same compound, the GI50 (U-251) was > 100 µM (inactive), the GI50 (UACC-257) was > 100 µM (inactive) and the GI50 (UACC-62) was > 100 µM (inactive). For the same compound, the GI50 (UO-31) was > 100 µM (inactive).

In the case of CC(=O)Oc1cc(OC(C)=O)c2c(c1)OC(c1ccc(OC(C)=O)c(OC(C)=O)c1)CC2=O (centres undefined), the GI50 (A549) is reported as 43.9 µM (inactive), the GI50 (CCRF-CEM) is reported as 20.4 µM (inactive) and the GI50 (COLO 205) is reported as 63.1 µM (inactive). The GI50 (DMS-273) was 50.6 µM (inactive), the GI50 (HCC 2998) was > 100 µM (inactive) and the GI50 (HCT-116) was 63.7 µM (inactive). The GI50 (HL-60) was 0.458 µM (active), the GI50 (HOP-18) was 30.1 µM (inactive) and the GI50 (HOP-92) was 29.8 µM (inactive). For the same compound, the GI50 (SF-295) was 41.6 µM (inactive), the GI50 (SK-MEL-5) was 55.3 µM (inactive) and the GI50 (SK-OV-3) was 71.9 µM (inactive). For the same compound, the GI50 (SN12C) was 0.0446 µM (active), the GI50 (SR) was 14.7 µM (inactive) and the GI50 (SW-620) was 47.5 µM (inactive). The GI50 (TK-10) was 49.9 µM (inactive) and the GI50 (UO-31) was 38.9 µM (inactive).
